Patent US9556165B2 (priority 2012, dated 2017)
Converted amounts (≈) assume the structure as drawn. Where two headings read alike, the source gives them in different places.

Key:
Assay type in all cases: cell-based
C. perfringens DSM756 = assay: microbe, parasite or virus in culture; conditions: broth microdilution; for MIC: Clostridium perfringens, DSM756, read-out: MIC strain 16 (C. perfringens DSM756), strain 16
Bacteria = assay: MIC determination in combination with β-lactamase inhibitors (constant 4 μg/mL)
[1] = system: P. aeruginosa 2297-con (AmpC derepressed); assay: MIC determination, broth microdilution (CLSI); conditions: Pseudomonas aeruginosa, read-out: strain 8 MIC, strain 8
E. coli J62-TEM-3 = assay: MIC determination, broth microdilution (CLSI); conditions: broth microdilution; for MIC: Escherichia coli, J62TEM3, read-out: MIC strain 18 (E. coli J62-TEM-3), strain 18
S. aureus 133 = assay: MIC determination, broth microdilution (CLSI)
P. aeruginosa PAO1 = assay: MIC determination, broth microdilution (CLSI); conditions: for MIC: Pseudomonas aeruginosa, PAO1, strain 6
S. pneumoniae 113 = assay: MIC determination, broth microdilution (CLSI); conditions: broth microdilution; for MIC: Streptococcus pneumoniae, 113, strain 13, read-out: MIC strain 13 (S. pneumoniae 113)
C. freundii K21/3034 = assay: MIC determination, broth microdilution (CLSI); conditions: for MIC: Citrobacter freundii, K21/3034, strain 4
K. pneumoniae 60 = assay: MIC determination, broth microdilution (CLSI); conditions: for MIC: Klebsiella pneumoniae, 60, strain 2
S. maltophilia ICB7569 = assay: MIC determination, broth microdilution (CLSI); conditions: Stenotrophomonas maltophilia, ICB7569, strain 10
A. baumannii ATCC15308 = assay: MIC determination, broth microdilution (CLSI); conditions: for MIC: Acinetobacter baumannii, ATCC15308, strain 9
[2] = system: P. aeruginosa 2297 (AmpC wt); assay: MIC determination, broth microdilution (CLSI); conditions: Pseudomonas aeruginosa, strain 7
M. morganii 126/3048 = assay: MIC determination, broth microdilution (CLSI); conditions: for MIC: Morganella morganii, 126/3048, strain 5
B. fragilis 6688 = assay: MIC determination, broth microdilution (CLSI); conditions: broth microdilution; for MIC: Bacteroides fragilis, 6688, strain 15, read-out: MIC strain 15 (B. fragilis 6688)
E. coli J62 = assay: MIC determination, broth microdilution (CLSI); conditions: broth microdilution; for MIC: Escherichia coli, J62, strain 17, read-out: MIC strain 17 (E. coli J62)
E. cloacae 34654 = assay: MIC determination, broth microdilution (CLSI); conditions: for MIC: Enterobacter cloacae, 34654, strain 3
H. influenzae ATCC 49247 = assay: MIC determination, broth microdilution (CLSI); conditions: broth microdilution; for MIC: Haemophilus influenzae, ATCC49247, strain 12, read-out: MIC strain 12 (H. influenzae ATCC 49247)
E. coli ATCC25922 = assay: MIC determination, broth microdilution (CLSI); conditions: for MIC: Escherichia coli, ATCC25922, strain 1
[3] = Staphylococcus aureus, 133, strain 11, read-out: strain 11 MIC
[4] = Staphylococcus aureus, 133, strain 14, broth microdilution, read-out: MIC strain 14 (S. aureus 133)

| SMILES | MIC (C. perfringens DSM756) | MIC strain 19 (E. coli J62-TEM-3 + 4 μg/mL clavulanic acid) (Bacteria) | MIC strain 20 (E. coli J62-TEM-3 + 4 μg/mL sulbactam) (Bacteria) | MIC strain 21 (E. coli J62-TEM-3 + 4 μg/mL tazobactam) (Bacteria) | MIC [1] | MIC (E. coli J62-TEM-3) | MIC (S. aureus 133; [3]) | MIC (P. aeruginosa PAO1) | MIC (S. pneumoniae 113) | MIC (C. freundii K21/3034) | MIC (K. pneumoniae 60) | MIC (S. maltophilia ICB7569) | MIC (A. baumannii ATCC15308) | MIC [2] | MIC (M. morganii 126/3048) | MIC (B. fragilis 6688) | MIC (E. coli J62) | MIC (E. cloacae 34654) | MIC (H. influenzae ATCC 49247) | MIC (E. coli ATCC25922) | further results |
| --- | --- | --- | --- | --- | --- | --- | --- | --- | --- | --- | --- | --- | --- | --- | --- | --- | --- | --- | --- | --- | --- |
| CC1(C)[C@H](NC(=O)/C(=N\O[C@@H](COc2ccc(C(=N)NC3CCNCC3)cc2)C(=O)O)c2csc(N)n2)C(=O)N1OS(=O)(=O)O [Example 108, (2S)-2-({[(1Z)-1-(2-Amino-1,3-thiazol-4-yl)-2-{[(3S)-2,2-dimethyl-4-oxo-1-(sulfooxy)-azetidin-3-yl]amino}-2-oxoethylidene]amino}oxy)-3-{4-[N-(piperidin-4-yl)carbamimidoyl]phenoxy}propanoic acid] | 1 µg/mL (≈ 1.5 µM) | ≦0.063 mg/L | ≦0.063 mg/L | 0.125 µg/mL | 1 µg/mL (≈ 1.5 µM) | 4 µg/mL (≈ 5.98 µM) | ≤ 0.063 µg/mL | 0.5 µg/mL (≈ 0.748 µM) | 0.5 µg/mL (≈ 0.748 µM) | ≤ 0.063 µg/mL | 0.125 µg/mL (≈ 0.187 µM) | 4 µg/mL (≈ 5.98 µM) | 1 µg/mL (≈ 1.5 µM) | 1 µg/mL (≈ 1.5 µM) | ≤ 0.063 µg/mL | 8 µg/mL (≈ 12 µM) | 0.125 µg/mL (≈ 0.187 µM) | 0.125 µg/mL (≈ 0.187 µM) | ≤ 0.063 µg/mL | 0.125 µg/mL (≈ 0.187 µM) | MIC (S. aureus 133; [4]): 32 µg/mL (≈ 47.9 µM) |
| CC1(C)[C@H](NC(=O)/C(=N\O[C@@H](COc2ccc(C(=N)NCC3CCCCN3)cc2)C(=O)O)c2csc(N)n2)C(=O)N1OS(=O)(=O)O (stereo partly drawn) [Example 99, (2S)-2-({[(1Z)-1-(2-Amino-1,3-thiazol-4-yl)-2-{[(3S)-2,2-dimethyl-4-oxo-1-(sulfooxy)-azetidin-3-yl]amino}-2-oxoethylidene]amino}oxy)-3-{4-[N-(piperidin-2-ylmethyl)carbamimidoyl]phenoxy}propanoic acid] | 0.5 µg/mL (≈ 0.732 µM) | 0.125 µg/mL | 0.125 µg/mL | 0.25 µg/mL | 2 µg/mL (≈ 2.93 µM) | 4 µg/mL (≈ 5.86 µM) | ≤ 0.063 µg/mL | 2 µg/mL (≈ 2.93 µM) | 0.5 µg/mL (≈ 0.732 µM) | 0.125 µg/mL (≈ 0.183 µM) | 0.25 µg/mL (≈ 0.366 µM) | 4 µg/mL (≈ 5.86 µM) | 2 µg/mL (≈ 2.93 µM) | 2 µg/mL (≈ 2.93 µM) | ≤ 0.063 µg/mL | 8 µg/mL (≈ 11.7 µM) | 0.25 µg/mL (≈ 0.366 µM) | 0.25 µg/mL (≈ 0.366 µM) | ≤ 0.063 µg/mL | 0.125 µg/mL (≈ 0.183 µM) | MIC (S. aureus 133; [4]): 32 µg/mL (≈ 46.9 µM) |
| CC1(C)[C@H](NC(=O)/C(=N\OCC(Oc2ccc(C(=N)N)cc2)C(=O)O)c2csc(N)n2)C(=O)N1OS(=O)(=O)O (single isomer, unassigned) [Example 87B] | – | 0.5 µg/mL | 1 µg/mL | 2 µg/mL | 32 µg/mL (≈ 54.6 µM) | – | – | – | – | – | – | 16 µg/mL (≈ 27.3 µM) | – | 32 µg/mL (≈ 54.6 µM) | – | – | – | – | – | – | MIC strain 16 (C. perfringens DSM756) (C. perfringens DSM756; strain 16): 16 µg/mL (≈ 27.3 µM); MIC strain 18 (E. coli J62-TEM-3) (E. coli J62-TEM-3; strain 18): 32 µg/mL (≈ 54.6 µM); strain 11 MIC (S. aureus 133; strain 11): ≦0.063 mg/L; strain 6 MIC (P. aeruginosa PAO1; strain 6): 16 µg/mL; MIC strain 13 (S. pneumoniae 113) (S. pneumoniae 113; strain 13): 1 µg/mL (≈ 1.71 µM); strain 4 MIC (C. freundii K21/3034; strain 4): 0.5 µg/mL; strain 2 MIC (K. pneumoniae 60; strain 2): 0.5 µg/mL; strain 9 MIC (A. baumannii ATCC15308; strain 9): 16 µg/mL; strain 5 MIC (M. morganii 126/3048; strain 5): 0.25 µg/mL; MIC strain 15 (B. fragilis 6688) (B. fragilis 6688; strain 15): 16 µg/mL (≈ 27.3 µM); MIC strain 17 (E. coli J62) (E. coli J62; strain 17): 1 µg/mL (≈ 1.71 µM); strain 3 MIC (E. cloacae 34654; strain 3): 1 µg/mL; MIC strain 12 (H. influenzae ATCC 49247) (H. influenzae ATCC 49247; strain 12): 0.125 µg/mL (≈ 0.213 µM); strain 1 MIC (E. coli ATCC25922; strain 1): 0.5 µg/mL |
| CC1(C)[C@H](NC(=O)/C(=N\O[C@@H](COc2ccc(C(=N)NC(CN)CN)cc2)C(=O)O)c2csc(N)n2)C(=O)N1OS(=O)(=O)O [Example 102, (2S)-2-({[(1Z)-1-(2-Amino-1,3-thiazol-4-yl)-2-{[(3S)-2,2-dimethyl-4-oxo-1-(sulfooxy)azetidin-3-yl]amino}-2-oxoethylidene]amino}oxy)-3-{4-[N-(1,3-diaminopropan-2-yl)carbamimidoyl]phenoxy}propanoic acid] | 2 µg/mL (≈ 3.04 µM) | ≦0.063 mg/L | ≦0.063 mg/L | 0.125 µg/mL | 2 µg/mL (≈ 3.04 µM) | 4 µg/mL (≈ 6.08 µM) | ≤ 0.063 µg/mL | 1 µg/mL (≈ 1.52 µM) | 0.5 µg/mL (≈ 0.76 µM) | ≤ 0.063 µg/mL | ≤ 0.063 µg/mL | 4 µg/mL (≈ 6.08 µM) | 4 µg/mL (≈ 6.08 µM) | 2 µg/mL (≈ 3.04 µM) | ≤ 0.063 µg/mL | 8 µg/mL (≈ 12.2 µM) | 0.125 µg/mL (≈ 0.19 µM) | 0.25 µg/mL (≈ 0.38 µM) | ≤ 0.063 µg/mL | 0.125 µg/mL (≈ 0.19 µM) | – |
| CC1(C)[C@H](NC(=O)/C(=N\O[C@@H](COc2ccc(C(=N)N[C@@H]3CCCNC3)cc2)C(=O)O)c2csc(N)n2)C(=O)N1OS(=O)(=O)O [Example 88, (2S)-2-({[(1Z)-1-(2-Amino-1,3-thiazol-4-yl)-2-{[(3S)-2,2-dimethyl-4-oxo-1-(sulfooxy)azetidin-3-yl]amino}-2-oxoethylidene]amino}oxy)-3-(4-{N-[(3R)-piperidin-3-yl]carbamimidoyl}phenoxy)propanoic acid] | 0.5 µg/mL (≈ 0.748 µM) | ≦0.063 mg/L | ≦0.063 mg/L | ≦0.063 mg/L | 1 µg/mL (≈ 1.5 µM) | 2 µg/mL (≈ 2.99 µM) | – | 1 µg/mL (≈ 1.5 µM) | 0.5 µg/mL (≈ 0.748 µM) | ≤ 0.063 µg/mL | 0.125 µg/mL (≈ 0.187 µM) | 4 µg/mL (≈ 5.98 µM) | 2 µg/mL (≈ 2.99 µM) | 1 µg/mL (≈ 1.5 µM) | ≤ 0.063 µg/mL | 8 µg/mL (≈ 12 µM) | 0.125 µg/mL (≈ 0.187 µM) | ≤ 0.063 µg/mL | ≤ 0.063 µg/mL | ≤ 0.063 µg/mL | MIC (S. aureus 133; [4]): 32 µg/mL (≈ 47.9 µM) |
| CC1(C)[C@H](NC(=O)/C(=N\OCCOc2ccc(C(=N)NC3CNNC3)cc2)c2csc(N)n2)C(=O)N1OS(=O)(=O)O [Example 92] | 2 µg/mL (≈ 3.27 µM) | 0.5 µg/mL | 0.5 µg/mL | 0.5 µg/mL | 8 µg/mL (≈ 13.1 µM) | 32 µg/mL (≈ 52.3 µM) | ≤ 0.063 µg/mL | 8 µg/mL (≈ 13.1 µM) | ≤ 0.063 µg/mL | 0.5 µg/mL (≈ 0.817 µM) | 0.5 µg/mL (≈ 0.817 µM) | 32 µg/mL (≈ 52.3 µM) | 4 µg/mL (≈ 6.54 µM) | 8 µg/mL (≈ 13.1 µM) | 0.5 µg/mL (≈ 0.817 µM) | 8 µg/mL (≈ 13.1 µM) | 1 µg/mL (≈ 1.63 µM) | 1 µg/mL (≈ 1.63 µM) | 0.125 µg/mL (≈ 0.204 µM) | 0.5 µg/mL (≈ 0.817 µM) | MIC (S. aureus 133; [4]): 8 µg/mL (≈ 13.1 µM) |
| CC1(C)[C@H](NC(=O)/C(=N\O[C@@H](COc2ccc(C(=N)NCC3CCCN3)cc2)C(=O)O)c2csc(N)n2)C(=O)N1OS(=O)(=O)O (stereo partly drawn) [Example 98, (2S)-2-({[(1Z)-1-(2-Amino-1,3-thiazol-4-yl)-2-{[(3S)-2,2-dimethyl-4-oxo-1-(sulfooxy)-azetidin-3-yl]amino}-2-oxoethylidene]amino}oxy)-3-{4-[N-(pyrrolidin-2-ylmethyl)carbamimidoyl]phenoxy}propanoic acid] | 2 µg/mL (≈ 2.99 µM) | 0.125 µg/mL | 0.125 µg/mL | 0.125 µg/mL | 2 µg/mL (≈ 2.99 µM) | 8 µg/mL (≈ 12 µM) | ≤ 0.063 µg/mL | 1 µg/mL (≈ 1.5 µM) | 0.5 µg/mL (≈ 0.748 µM) | 0.125 µg/mL (≈ 0.187 µM) | 0.125 µg/mL (≈ 0.187 µM) | 4 µg/mL (≈ 5.98 µM) | 1 µg/mL (≈ 1.5 µM) | 2 µg/mL (≈ 2.99 µM) | ≤ 0.063 µg/mL | 8 µg/mL (≈ 12 µM) | 0.125 µg/mL (≈ 0.187 µM) | 0.125 µg/mL (≈ 0.187 µM) | ≤ 0.063 µg/mL | 0.125 µg/mL (≈ 0.187 µM) | MIC (S. aureus 133; [4]): 32 µg/mL (≈ 47.9 µM) |
